The results in this text go back to patent US7109206B2.

Series [1] deals with patients with severe coronary artery disease. Nature of the series: Angina symptoms and clinical outcome of treated patients (case reports). In kind it is in vivo, human. The conditions noted are these: for angina frequency: buspirone 20 mg t.i.d.; for time to clearing of congestive heart failure: furosemide 40 mg twice a day, digoxin 0.25 mg, warfarin 5 mg once a day.
Source text: The patient population in this study consisted of 11 individuals with severe coronary artery disease who were refractory to CABG or PCTA or who declined recommended CABG or PCTA, and one individual with severe carotid artery stenosis. The study group consisted of 10 men and 2 women, with a median age at entry into the program of 65 years (mean, 65.8 years), and a mean time in program of 4.1 years (range, 9 months to 12 years).
In this study, ten patients experienced angina at the time of presentation. The median time to remission of anginal symptoms was calculated on the basis of the nine patients who presented with angina and for whom records of anginal frequency were accessible.
The test system is the same in series [2]. The experiment in a line: Tolerability / adverse effects in treated patients.
A short description of series [3]: Serum lipids and laboratory values of treated patients (case reports).

Regarding `O=C1CC2(CCCC2)CC(=O)N1CCCCN1CCN(c2ncccn2)CC1` [buspirone], the angina result in series [1] (Patient five, buspirone 15 mg t.i.d. added, induction phase) is “their angina remitted”. The angina frequency result in series [1] (Patient five, no use of nitroglycerin) is “one episode of mild angina in two weeks”; in series [1] (Patient five, through June of the next year), “no episodes of angina”. The angina symptoms result in series [1] (Patient five, buspirone increased to 20 mg t.i.d., isosorbide dinitrate discontinued) is listed as “Marked palliation of the symptoms”. For the same molecule, in series [1] (Patient one, buspirone 10 mg b.i.d. added to medications), the “chest tightness with anxiety or distress” value is given as “no further episodes of chest tightness were reported”. Moreover, the “frequency of angina symptoms” value in series [1] (Patient, buspirone 30 mg per day, after one month 15 mg t.i.d.) is recorded as “remained approximately constant”. In addition, the “severity of angina symptoms” value in series [1] (Patient, buspirone 30 mg per day, after one month 15 mg t.i.d., added to medications) was “declined markedly, from pain to mild tightness”. Further, the anginal symptoms result in series [1] (Patient, buspirone, six months after initiation of therapy) is “resolved completely”. The “relief from refractory unstable angina” value in series [1] (summary of results) was “effective in providing relief from refractory unstable angina”.
As to `O=C(O)c1cccnc1` [niacin], in series [2] (Patient three, niacin 3.0 g/day, weeks 5-7, dose decreased to 1.5 g/day), the adverse effect entry was “itching and flushing”. The tolerability entry in series [2] (Patient two, niacin 3 g per day, dose decreased to 1 g per day) was “intolerance appeared”.
Take `COc1ccc([C@@H]2Sc3ccccc3N(CCN(C)C)C(=O)[C@@H]2OC(C)=O)cc1` [diltiazem]: the angina result in series [1] (Patient three, diltiazem restarted after one month of lisinopril) is listed as “prompt remission of angina”.
As to `CCC(C)(C)C(=O)O[C@H]1C[C@@H](C)C=C2C=C[C@H](C)[C@H](CC[C@@H]3C[C@@H](O)CC(=O)O3)[C@H]21` [simvastatin], the “serum total cholesterol, mean of five determinations” value in series [3] (Patient four, simvastatin 40 mg per day substituted for pravastatin in the regimen, range 81-146) is 118 mg/dL. Moreover, the “HDL cholesterol, mean of five determinations” value in series [3] (Patient four, simvastatin 40 mg per day, range 37-71) is 55 mg/dL. In series [3] (Patient four, year of 1995), this molecule showed an HDL of 82 mg/dL, an LDL of 53 mg/dL, a total cholesterol of 121 mg/dL and a triglycerides of 44 mg/dL.
Take `O=[N+]([O-])OCC(CO[N+](=O)[O-])O[N+](=O)[O-]` [nitroglycerin]: in series [1] (Patient five, discontinuation of the nitroglycerin), the angina after discontinuation entry was “five episodes of angina”. In series [1] (Patient five, transdermal nitroglycerin), the nonexertional angina result is “refractory”. Also, the left neck pain result in series [1] (Patient two, 15 months after induction of therapy) is “relieved”.
Take `NCCCC[C@H](N[C@@H](CCc1ccccc1)C(=O)O)C(=O)N1CCC[C@H]1C(=O)O` [lisinopril]: the angina entry in series [1] (Patient three, lisinopril 5 mg/day substituted for diltiazem 60 mg four times a day) is “Angina recurred with mild to moderate exercise”.
As to `CC[C@H](C)C(=O)O[C@H]1C[C@@H](C)C=C2C=C[C@H](C)[C@H](CC[C@@H]3C[C@@H](O)CC(=O)O3)[C@H]21` [lovastatin], the adverse event result in series [2] (Patient four, on lovastatin 30 mg per day regimen, pravastatin substituted) is listed as “mild conjunctivitis of unknown etiology”. Moreover, in series [3] (Patient two, fifth year, lovastatin discontinued, range 155 to 194), the total cholesterol worked out at 176 mg/dL.
As for `C[C@H]1O[C@@H](O[C@H]2[C@@H](O)C[C@H](O[C@H]3[C@@H](O)C[C@H](O[C@H]4CC[C@@]5(C)[C@H](CC[C@@H]6[C@@H]5C[C@@H](O)[C@]5(C)[C@@H](C7=CC(=O)OC7)CC[C@]65O)C4)O[C@@H]3C)O[C@@H]2C)C[C@H](O)[C@@H]1O` [digoxin], the “time to clearing of congestive heart failure” value in series [1] (Patient three, given together) was 24 h.
On to `CC(=O)CC(c1ccccc1)c1c(O)c2ccccc2oc1=O` (centres unmarked) [warfarin], for which the “time to clearing of congestive heart failure” value in series [1] (Patient three, given together) was determined as 24 h.
Consider colestipol, for which the angina entry in series [1] (Patient five, colestipol 12 g per day) was “severity of their angina declined”. In series [3] (Patient five, colestipol 12 g per day, declined from 241), the “serum total cholesterol, mean of three determinations” value was 217 mg/dL.
On to `O=c1n(CCCN2CCN(c3cccc(Cl)c3)CC2)nc2ccccn12` [trazodone], for which the “relief of fatigue and difficulty sleeping” value in series [1] (Patient three, trazodone 50 mg and imipramine 25 mg at bedtime, given together) was “fair to moderate relief”.
